Earlier results as cited in patent US9927424B2, “Assays for identifying compounds that modulate bitter taste” (Chromocell Corporation, priority 2013, dated 2018).

Legend:
Settings in all cases: PCT/US12/61400; cited from earlier work
TAS2R4 = biological target: T1, TAS2R4 (Homo sapiens, UniProt Q9NYW5)
T1 construct: expressed in transfected cells
T1 sequence (Q9NYW5 1-299): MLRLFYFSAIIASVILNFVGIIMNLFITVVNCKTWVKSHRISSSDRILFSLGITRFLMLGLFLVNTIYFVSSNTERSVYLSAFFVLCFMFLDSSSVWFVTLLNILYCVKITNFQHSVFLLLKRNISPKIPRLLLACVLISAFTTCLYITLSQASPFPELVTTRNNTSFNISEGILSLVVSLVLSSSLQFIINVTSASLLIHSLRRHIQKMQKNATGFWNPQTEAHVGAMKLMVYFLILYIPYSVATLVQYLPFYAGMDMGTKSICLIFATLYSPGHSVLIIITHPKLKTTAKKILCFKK

TAS2R9 = biological target: T2, TAS2R9 (Homo sapiens, UniProt Q9NYW1)
T2 construct: expressed in transfected cells
T2 sequence (Q9NYW1 1-312): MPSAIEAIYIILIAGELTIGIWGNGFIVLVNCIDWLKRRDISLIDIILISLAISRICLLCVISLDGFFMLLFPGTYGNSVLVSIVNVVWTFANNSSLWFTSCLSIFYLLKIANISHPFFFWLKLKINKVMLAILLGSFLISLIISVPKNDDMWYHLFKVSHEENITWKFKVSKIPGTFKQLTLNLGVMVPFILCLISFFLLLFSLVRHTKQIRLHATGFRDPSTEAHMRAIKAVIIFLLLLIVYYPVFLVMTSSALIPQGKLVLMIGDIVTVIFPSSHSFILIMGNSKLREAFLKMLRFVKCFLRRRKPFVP

TAS2R14 = biological target: T3, TAS2R14 (Homo sapiens, UniProt Q9NYV8)
T3 construct: expressed in transfected cells
T3 sequence (Q9NYV8 1-317): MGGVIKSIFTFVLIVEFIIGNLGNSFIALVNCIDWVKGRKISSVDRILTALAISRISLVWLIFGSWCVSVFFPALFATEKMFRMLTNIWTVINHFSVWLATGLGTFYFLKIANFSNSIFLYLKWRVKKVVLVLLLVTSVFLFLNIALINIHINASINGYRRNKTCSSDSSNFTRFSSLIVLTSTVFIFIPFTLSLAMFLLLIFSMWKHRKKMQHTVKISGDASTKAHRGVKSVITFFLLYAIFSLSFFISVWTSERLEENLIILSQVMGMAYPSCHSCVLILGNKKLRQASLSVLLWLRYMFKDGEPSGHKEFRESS

TAS2R44 = biological target: T4, TAS2R44 (Homo sapiens, UniProt P59538)
T4 construct: expressed in transfected cells
T4 sequence (P59538 1-309): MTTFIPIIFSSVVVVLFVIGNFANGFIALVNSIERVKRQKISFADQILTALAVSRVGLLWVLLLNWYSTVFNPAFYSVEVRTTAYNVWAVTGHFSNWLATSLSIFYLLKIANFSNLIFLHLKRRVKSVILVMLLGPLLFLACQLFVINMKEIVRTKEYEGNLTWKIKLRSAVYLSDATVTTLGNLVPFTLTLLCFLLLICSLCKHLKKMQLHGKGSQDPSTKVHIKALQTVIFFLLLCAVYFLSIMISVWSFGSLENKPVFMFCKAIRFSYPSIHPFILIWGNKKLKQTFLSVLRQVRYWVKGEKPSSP

[Cl-].[K+] [KCl]
specifically respond: TAS2R4 response to stimulation, previously shown (TAS2R4) | TAS2R9 response to stimulation, previously shown (TAS2R9) | TAS2R14 response to stimulation, previously shown (TAS2R14) | TAS2R44 response to stimulation, previously shown (TAS2R44)
